From patent publication US4499083A, “3-O-Demethyl derivatives of the istamycin B series of compounds” (Zaidan Hojin Biseibutsu Kagaku Kenkyu Kai, priority 1980, dated 1985)
In brackets after ≈: the same amount, converted by molar mass. Read-outs that look alike come from different tables or passages of the source.

Experiments:
[1] = system: Escherichia coli K-12 LA290 R55; test: Antibacterial spectrum, MIC by serial dilution on nutrient agar; type: cell-based; details: K12LA290R55, 17 h, read-out: Minimum inhibitory concentration
Serratia marcescens = test: as above; type: cell-based; details: read-out: Minimum inhibitory concentration
[2] = system: Gram-negative and Gram-positive bacteria; test: Antibacterial activity, overall statement; type: cell-based
Description: The antibacterial spectra of 3-O-demethylistamycin B.sesquicarbonate and 3-O-demethyl-2"-N-formimidoylistamycin B.disulphate.trihydrate are shown in Table 2, along with that of istamycin B for comparison purposes.
*^1 Determined according to a standard serial dilution method on
nutrient agar plates which were incubated at 37° C. for 17 hours.

Sarcina lutea PCI 1001 = test: Antibacterial spectrum, MIC by serial dilution on nutrient agar; type: cell-based; details: Micrococcus luteus, PCI1001, 37° C., 17 hours, read-out: Minimum inhibitory concentration
[3] = system: Staphylococcus epidermidis 109; test: as above; type: cell-based; details: 37° C., 17 hours, read-out: Minimum inhibitory concentration
[4] = system: Pseudomonas aeruginosa H9; test: as above; type: cell-based; details: 37° C., 17 hours, read-out: Minimum inhibitory concentration
Proteus vulgaris OX19 = test: as above; type: cell-based; details: 37° C., 17 hours, read-out: Minimum inhibitory concentration
[5] = system: Micrococcus flavus FDA 16; test: as above; type: cell-based; details: FDA16, 37° C., 17 hours, read-out: Minimum inhibitory concentration
[6] = system: Pseudomonas aeruginosa 99; test: as above; type: cell-based; details: 37° C., 17 hours, read-out: Minimum inhibitory concentration
[7] = system: Pseudomonas maltophilia GN 907; test: as above; type: cell-based; details: Stenotrophomonas maltophilia, GN907, 37° C., 17 hours, read-out: Minimum inhibitory concentration
[8] = system: Escherichia coli K-12 LA290 R56; test: as above; type: cell-based; details: K12LA290R56, 17 h, read-out: Minimum inhibitory concentration
in vivo = details: mouse, iv
[9] = system: Pseudomonas aeruginosa No. 12; test: Antibacterial spectrum, MIC by serial dilution on nutrient agar; type: cell-based; details: 37° C., 17 hours, read-out: Minimum inhibitory concentration
Serratia sp. SOU = test: as above; type: cell-based; details: 37° C., 17 hours, read-out: Minimum inhibitory concentration
Serratia sp. 4 = test: as above; type: cell-based; details: 37° C., 17 hours, read-out: Minimum inhibitory concentration
[10] = system: Staphylococcus aureus Smith; test: as above; type: cell-based; details: read-out: Minimum inhibitory concentration
[11] = system: Pseudomonas aeruginosa PST1; test: as above; type: cell-based; details: 37° C., 17 hours, read-out: Minimum inhibitory concentration
Escherichia coli K-12 = test: as above; type: cell-based; details: K12, 37° C., 17 hours, read-out: Minimum inhibitory concentration
Salmonella typhi T-63 = test: as above; type: cell-based; details: Salmonella enterica, 17 h, read-out: Minimum inhibitory concentration
[12] = system: Shigella dysenteriae JS11910; test: as above; type: cell-based; details: JS11910, 17 h, read-out: Minimum inhibitory concentration
Proteus rettgeri GN311 = test: as above; type: cell-based; details: Providencia rettgeri, 37° C., 17 hours, read-out: Minimum inhibitory concentration
mice = test: Acute toxicity by intravenous injection in mice
[13] = system: Bacillus subtilis NRRL B-558; test: Antibacterial spectrum, MIC by serial dilution on nutrient agar; type: cell-based; details: read-out: Minimum inhibitory concentration
[14] = system: Pseudomonas aeruginosa H11; test: as above; type: cell-based; details: 37° C., 17 hours, read-out: Minimum inhibitory concentration
resistant bacteria = test: Antibacterial activity against resistant bacteria; type: cell-based
Pseudomonas aeruginosa = test: Antibacterial activity against Pseudomonas aeruginosa; type: cell-based
[15] = system: Gram-negative and Gram-positive bacteria; details: relative to istamycin A; earlier work; cited from earlier work
[16] = Staphylococcus aureus Smith, nutrient agar, 37° C., 17 hours
[17] = NRRLB558, Bacillus subtilis NRRL B-558, nutrient agar, 37° C., 17 hours
[18] = nutrient agar, 37° C., 17 hours
[19] = listed as 3-O-demethylistamycin B

For `CNCC1CCC(N)C(OC2C(N)CC(O)C(N(C)C(=O)CNC=N)C2O)O1` (centres unmarked) [3-O-Demethyl-2"-N-formimidoylistamycin B], the MIC [1] was 1.56 µg/mL (≈ 3.88 µM), the MIC (Serratia marcescens; 17 h) was 3.13 µg/mL (≈ 7.78 µM) and the “antibacterial activity (in words)” value [2] was “high antibacterial activity against a wide variety of Gram-negative and Gram-positive bacteria”. The MIC (Sarcina lutea PCI 1001) was less than 0.2 µg/mL, the MIC [3] was 0.78 µg/mL (≈ 1.94 µM) and the MIC [4] was 12.5 µg/mL (≈ 31.1 µM). For the same compound, the MIC (Proteus vulgaris OX19) was 0.39 µg/mL (≈ 0.969 µM), the MIC [5] was less than 0.2 µg/mL and the MIC [6] was 100 µg/mL (≈ 248 µM). It also gave an MIC [7] greater than 100 µg/mL, an MIC [8] of 1.56 µg/mL (≈ 3.88 µM) and an MTD (in vivo) of 160 mg/kg. It also gave an MIC [9] of 12.5 µg/mL (≈ 31.1 µM), an MIC (Serratia sp. SOU) greater than 100 µg/mL and an MIC (Serratia sp. 4) of 6.25 µg/mL (≈ 15.5 µM). It also gave an MIC [10, 16] of less than 0.2 µg/mL, an MIC [11] of 25 µg/mL (≈ 62.1 µM) and an MIC (Escherichia coli K-12) of 1.56 µg/mL (≈ 3.88 µM). For the same compound, the MIC (Salmonella typhi T-63) was 0.78 µg/mL (≈ 1.94 µM), the MIC [12] was 3.13 µg/mL (≈ 7.78 µM) and the MIC (Proteus rettgeri GN311) was 12.5 µg/mL (≈ 31.1 µM). The “toxicity (in words)” value (mice) was “low toxicity to animals”, the MIC [13, 17] was less than 0.2 µg/mL and the MIC [14] was 25 µg/mL (≈ 62.1 µM).

With `CNCC1CCC(N)C(OC2C(N)CC(O)C(N(C)C(=O)CN)C2O)O1` (centres unmarked) [3-O-Demethylistamycin B] the MIC [1] was 6.25 µg/mL (≈ 16.6 µM), the MIC (Serratia marcescens; [18]) was 12.5 µg/mL (≈ 33.3 µM) and the “antibacterial activity (in words)” value [2] was “high antibacterial activity”. For the same compound, the “antibacterial activity (in words)” value [2, 19] was “high antibacterial activity against a wide variety of Gram-negative and Gram-positive bacteria”, the MIC (Sarcina lutea PCI 1001) was 0.39 µg/mL (≈ 1.04 µM) and the MIC [3] was 0.78 µg/mL (≈ 2.08 µM). It also gave an MIC [4] of 25 µg/mL (≈ 66.6 µM), an MIC (Proteus vulgaris OX19) of 0.78 µg/mL (≈ 2.08 µM) and an MIC [5] of 3.13 µg/mL (≈ 8.34 µM). For the same compound, the MIC [6] was 25 µg/mL (≈ 66.6 µM), the MIC [7] was greater than 100 µg/mL and the “effectiveness against a variety of resistant bacteria (in words)” value (resistant bacteria) was “effective against not only Pseudomonas aeruginosa but also a variety of resistant bacteria”. It also gave an MIC [8] of 3.13 µg/mL (≈ 8.34 µM), an MTD (in vivo) of 160 mg/kg and an MIC [9] of 12.5 µg/mL (≈ 33.3 µM). It also gave an MIC (Serratia sp. SOU) of 25 µg/mL (≈ 66.6 µM), an MIC (Serratia sp. 4) of 12.5 µg/mL (≈ 33.3 µM) and an MIC ([10]; Staphylococcus aureus, 17 h) of less than 0.2 µg/mL. The MIC [11] was 50 µg/mL (≈ 133 µM), the MIC (Escherichia coli K-12) was 3.13 µg/mL (≈ 8.34 µM) and the MIC (Salmonella typhi T-63) was 1.56 µg/mL (≈ 4.15 µM). The MIC [12] was 6.25 µg/mL (≈ 16.6 µM), the MIC (Proteus rettgeri GN311) was 12.5 µg/mL (≈ 33.3 µM) and the “toxicity (in words)” value (mice) was “low toxicity to animals”. The “toxicity (in words)” value (mice; [19]) was “low toxicity”, the “effectiveness against Pseudomonas aeruginosa (in words)” value (Pseudomonas aeruginosa) was “effective against not only Pseudomonas aeruginosa” and the MIC ([13]; Bacillus subtilis, NRRLB558, 17 h) was less than 0.2 µg/mL. The MIC [14] was 25 µg/mL (≈ 66.6 µM).

With `CNCC1CCC(N)C(OC2C(N)CC(OC)C(N(C)C(=O)CN)C2O)O1` (centres unmarked) [Istamycin B, istamycin B] the MIC [1] was 3.13 µg/mL (≈ 8.04 µM), the MIC (Serratia marcescens; [18]) was 6.25 µg/mL (≈ 16 µM) and the MIC (Sarcina lutea PCI 1001) was 0.2 µg/mL (≈ 0.513 µM). It also gave an MIC [3] of 0.78 µg/mL (≈ 2 µM), an MIC [4] of 50 µg/mL (≈ 128 µM) and an MIC (Proteus vulgaris OX19) of 0.39 µg/mL (≈ 1 µM). The MIC [5] was 6.25 µg/mL (≈ 16 µM), the MIC [6] was greater than 100 µg/mL and the MIC [7] was greater than 100 µg/mL. For the same compound, the MIC [8] was 1.56 µg/mL (≈ 4.01 µM), the MIC [9] was 100 µg/mL (≈ 257 µM) and the “antibacterial activity compared with istamycin A” value [15] was “higher antibacterial activity than istamycin A”. For the same compound, the MIC (Serratia sp. SOU) was 100 µg/mL (≈ 257 µM), the MIC (Serratia sp. 4) was 50 µg/mL (≈ 128 µM) and the MIC [10, 16] was less than 0.2 µg/mL. For the same compound, the MIC [11] was 100 µg/mL (≈ 257 µM), the MIC (Escherichia coli K-12) was 1.56 µg/mL (≈ 4.01 µM) and the MIC (Salmonella typhi T-63) was 0.39 µg/mL (≈ 1 µM). The MIC [12] was 3.13 µg/mL (≈ 8.04 µM), the MIC (Proteus rettgeri GN311) was 12.5 µg/mL (≈ 32.1 µM) and the MIC [13, 17] was less than 0.2 µg/mL. For the same compound, the MIC [14] was 50 µg/mL (≈ 128 µM).
